What all share (experiment): DTP human tumour cell line panel, 48 h
Test [1] relates to 786-0.
For test [2], the system named is A498.
In test [3] the test system is CAKI-1.
The subject of test [4] is CCRF-CEM.
Test [5] deals with COLO 205.
In test [6] the test system is EKVX.
Test [7] concerns HCT-116.
In test [8] the test system is HCT-15.
In test [9] the test system is HL-60.
For test [10], the system named is HOP-62.
In test [11] the test system is HOP-92.
The test system of test [12] is HT-29.
The test system of test [13] is IGROV-1.
The test system of test [14] is K562.
Test [15] relates to LOX IMVI.
Test [16] concerns MDA-MB-231.
In test [17] the test system is MDA-MB-435.
For test [18], the system named is MDA-N.
Test [19] relates to NCI-H460.
The test system of test [20] is NCI-H522.
In test [21] the test system is NCI/ADR-RES.
Test [22] concerns OVCAR-4.
Test [23] relates to PC-3.
The subject of test [24] is RPMI-8226.
The subject of test [25] is SF-268.
Test [26] deals with SF-539.
Test [27] concerns SK-MEL-2.
Test [28] has as its system SN12C.
Test [29] concerns SNB-19.
For test [30], the system named is SR.
For test [31], the system named is SW-620.
Test [32] deals with T47D.
Test [33] concerns TK-10.
Test [34] has as its system U-251.
Test [35] relates to UACC-257.
The test system of test [36] is A549.
Test [37] has as its system SK-MEL-5.

For orientation: GI50 means the concentration that inhibits growth by half.

Structures are written as SMILES.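 Where inhibition never reached the appropriate level, the endpoint shown equals the highest concentration tested. Otherwise, values were interpolated linearly from a five-concentration, 48-hour dose response in 96-well plates. GI50 = concentration required for 50% inhibition of growth.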 Calls of active or inactive are those of the source. Cut-off read from the data, not from the text of the source: active = GI50 up to about 1.1 µM and inactive = higher.

Turning to `COc1cc([C@@H]2c3cc4c(cc3[C@@H](NC(=O)NO)[C@H]3COC(=O)[C@H]23)OCO4)cc(OC)c1O`, the GI50 was 4.98 µM (inactive) in [1]; 14 µM (inactive) in test [2]; 6.31 µM (inactive) in test [3]; 12.7 µM (inactive) in test [4]; 5.3 µM (inactive) in test [5]; 7.45 µM (inactive) in [6]. In addition, the GI50 in test [7] is 4.84 µM (inactive); in test [8], 3.8 µM; in test [9], 3.72 µM (inactive); in [10] it was 5.37 µM (inactive); in test [11] it was > 100 µM (inactive); in test [12], 5.19 µM (inactive). The GI50 in [13] was 3.25 µM (inactive); in test [14] it was 3.1 µM (inactive); in [15] it was 4.58 µM (inactive); in [16] it was 4.42 µM (inactive); in test [17], 2.29 µM (inactive); in [18], 2.15 µM (inactive). Moreover, the GI50 in [19] was 4.42 µM (inactive); in test [20] it was > 100 µM (inactive); in test [21] it was 12.7 µM (inactive); in test [22], > 100 µM (inactive); in test [23] it was 4.91 µM (inactive); in [24], 4.03 µM (inactive). In addition, the GI50 in test [25] is 61.5 µM (inactive); in [26] it was 3.6 µM (inactive); in [27] it was 4.38 µM (inactive); in test [28], 4.71 µM (inactive); in test [29], > 100 µM (inactive); in test [30], 9.12 µM (inactive). For the same compound, the GI50 was 6.19 µM (inactive) in test [31]; > 100 µM (inactive) in test [32]; > 100 µM (inactive) in test [33]; 6.9 µM (inactive) in test [34]; > 100 µM (inactive) in test [35].

Turning to `O=C1c2c(O)ccc(O)c2C(=O)c2c(NCCNCCO)ccc(NCCNCCO)c21` [MITOXANTRONE], the GI50 in test [2] was 0.112 µM (active); in test [36], < 0.01 µM (active); in test [7] it was 0.0373 µM (active); in test [11], 0.0355 µM (active); in test [14], 0.0741 µM (active); in [17], 0.259 µM (active). For the same compound, the GI50 in test [26] was < 0.01 µM (active); in [37] it was 0.0719 µM (active); in test [35] it was 0.995 µM (active).

These data come from ChEMBL document CHEMBL1201862, “PubChem BioAssay data set” (2004).
